The RepoRT retention time repository (doi:10.1093/pcp/pcn183)
Counter-ions that a name gives are not always drawn.

Experiment: RP, Waters ACQUITY UPLC BEH C18, 38 °C, 0.24 mL/min; A: water + 0.1% formic acid, pH 3; B: acetonitrile + 0.1% formic acid, pH 3; gradient (min/%B) 0/0 0.25/0 0.4/9 0.8/17 1.9/100 2.1/100 2.11/0 3/0
Conditions: stereoisomer not certain

SMILES | LC retention time
CC(=O)NCCCNCCCCNCCCN [N1-Acetylspermine Trihydrochloride] | 0.14 min
NC(=O)c1ccc[n+](C2OC(COP(=O)([O-])O)C(O)C2O)c1 (stereo not drawn) [beta-Nicotinamide mononucleotide] | 0.24 min
NCC(=O)NCC(=O)O [Gly-Gly] | 0.16 min
NC(N)=NCCCC(N)C(=O)O (stereo not drawn) [L(+)-Arginine] | 0.16 min
O=C1CCNC(=O)N1 [5,6-Dihydrouracil] | 0.2 min
Cn1cncc1C[C@H](N)C(=O)O [3-Methyl-L-histidine] | 0.15 min
C[n+]1cccc(C(=O)[O-])c1 [Trigonelline hydrochloride] | 0.19 min
Nc1ccnc(=O)[nH]1 [Cytosine] | 0.19 min
CC(=O)OCC1OC(Oc2c(-c3ccc(O)c(O)c3)oc3cc(O)cc(O)c3c2=O)C(O)C(O)C1O (centres undefined) [Quercetin-3-O-glucose-6''-acetate] | 1.46 min
Nc1ccc(O)cc1 [4-Aminophenol hydrochloride] | 0.2 min
COC1C(O)C(O)C(O)C(O)C1O [D-Pinitol] | 0.17 min
Nc1ccn(C2OC(COP(=O)(O)O)C(O)C2O)c(=O)n1 (centres undefined) [Cytidine-5'-monophosphate monohydrate] | 0.24 min
NCCc1c[nH]c2ccc(O)cc12 [Serotonin hydrochloride] | 1.08 min
CN(C)c1ccccc1 [N,N-Dimethylaniline] | 1.11 min
OCCN(CCO)CCO [2,2',2''-Nitrilotriethanol] | 0.17 min
N=C(N)c1ccccc1 [Benzamidine hydrochloride hydrate] | 0.78 min
NCC(CC(=O)O)c1ccc(Cl)cc1 (racemic) [(+-)-Baclofen] | 1.24 min
O=C(O)CCCCCCC(=O)O [Suberic acid] | 1.4 min
CCC=CCC1C(=O)CCC1CC(=O)OC (centres undefined) [Methyl Jasmonate] | 1.93 min
O=c1cc[nH]c(=O)[nH]1 [Uracil] | 0.31 min
CC(=O)OC(CC(=O)O)C[N+](C)(C)C [O-Acety-L-carnitine hydrochloride] | 0.33 min
O=C(O)[C@H](O)[C@@H](O)[C@H](O)[C@H](O)CO [D-Gluconic acid sodium salt] | 0.17 min
CSCC1OC(n2cnc3c(N)ncnc32)C(O)C1O (centres undefined) [5'-Deoxy-5'-Methylthioadenosine] | 1.14 min

SMILES | LC retention time
c1ccc(NC[C@@H]2CCCN2)cc1 [(S)-(+)-2-(anilinomethyl)pyrrolidine] | 1.27 min
O=C(O)CCc1ccc(O)cc1 [3-(4-Hydroxyphenyl)-propionic acid] | 1.38 min
O=C1c2c(O)cc(O)cc2OC(c2ccc(O)c(O)c2)C1O (racemic) [(+-)-Taxifolin] | 1.45 min
CC([NH3+])C(=O)NC(C)C(=O)[O-] [D-Ala-D-ala] | 0.19 min
CCCCCCCCCC(=O)OCC(O)COP(=O)([O-])OCC[N+](C)(C)C (centres undefined) [Phosphocholine,1-Decanoyl-2-Hydroxy-sn-Glycero-3-] | 1.65 min
Nc1nc2nc[nH]c2c(=O)[nH]1 [Guanine] | 0.32 min
COc1ccc(C2CC(=O)c3c(O)cc(OC4OC(COC5OC(C)C(O)C(O)C5O)C(O)C(O)C4O)cc3O2)cc1O (centres undefined) [Hesperidin] | 1.45 min
CCC(C)C(=O)C(=O)O (racemic) [(+-)-3-Methyl-2-oxovaleric acid sodium salt] | 1.21 min
COc1ccc(-c2cc(=O)c3c(O)cc(OC4OC(COC5OC(C)C(O)C(O)C5O)C(O)C(O)C4O)cc3o2)cc1 (centres undefined) [Linarin] | 1.54 min
Cc1cc2nc3cc(C)c(N)cc3[n+](-c3ccccc3)c2cc1N [Safranine] | 1.57 min
O=C(O)Cc1c[nH]c2ccc(O)cc12 [5-Hydroxyindole-3-acetate (5-HIAA)] | 1.27 min
O=C(O)CCCCC1CCSS1 (racemic) [(+-)-alpha-Lipoic acid] | 1.74 min
C[C@H](N)C(=O)O [L-Alanine] | 0.17 min
COc1cc(C=CC(=O)O)cc(OC)c1O [Sinapic acid] | 1.44 min
CN(C)C=O [N,N-Dimethylformamide(DMF)] | 0.51 min
Nc1ccn(C2OC(CO)C(OP(=O)(O)O)C2O)c(=O)n1 (centres undefined) [Cytidine-3'-monophosphate] | 0.36 min
CC(=O)OCC[N+](C)(C)C [Acetylcholine chloride] | 0.24 min
NC(N)=NCC(=O)O [Glycocyamine] | 0.18 min
Cc1ncc(C[n+]2csc(CCO)c2C)c(N)n1 [Thiamine hydrochloride] | 0.19 min
O=c1cc(-c2ccc(O)c(OC3OC(CO)C(O)C(O)C3O)c2)oc2cc(OC3OC(CO)C(O)C(O)C3O)cc(O)c12 (centres undefined) [luteolin-3',7-di-O-glucoside] | 1.35 min
O=C(O)Cc1ccccc1O [2-Hydroxyphenylacetic acid] | 1.38 min
O=P(O)(O)OC1C(O)C(O)C(OP(=O)(O)O)C(O)C1O (centres undefined) | 2.13 min
CC(=O)Nc1ccc(O)cc1 [Acetaminophen] | 1.15 min

SMILES | LC retention time
Nc1ncnc2c1ncn2C1OC(CO)C(O)C1O (centres undefined) [Adenosine] | 1.06 min
NCC(=O)O [Glycine] | 0.16 min
O=C1CC[C@@H](C(=O)O)N1 [L-Pyroglutamic acid] | 0.41 min
OCCNCCO [Diethanolamine] | 0.16 min
CCCCCCCCCCCC(=O)OCC(O)COP(=O)([O-])OCC[N+](C)(C)C (centres undefined) [Phosphocholine,1-Lauroyl-2-Hydroxy-sn-Glycero-3-] | 1.79 min
CC(N)CC(=O)O (racemic) [DL-beta-Aminobutyric acid] | 0.18 min
C[C@@H](O)[C@H](N)C(=O)O [L-Threonine] | 0.17 min
Cc1ncsc1CCO [4-Methyl-5-thiazoleethanol] | 1.08 min
NCCOP(=O)(O)O [O-Phosphorylethanolamine] | 0.16 min
O=C(O)C(O)Cc1ccc(O)cc1 (racemic) [DL-p-Hydroxyphenyllactic acid] | 1.18 min
C=CC(C)(O)CCC=C(C)CCC=C(C)C (stereo not drawn) [cis-Nerolidol] | 1.81 min
CC1OC(O)C(O)C(O)C1O (centres undefined) | 0.21 min
CC(C)(COP(=O)(O)OP(=O)(O)OCC1OC(n2cnc3c(N)ncnc32)C(O)C1O)C(O)C(=O)NCCC(=O)NCCS (centres undefined) [3'-Dephosphocoenzyme A] | 1.12 min
CC(C(=O)O)C(=O)O [Methylmalonic acid] | 0.54 min
Nc1ccc(C(=O)O)cc1 [4-Aminobenzoic acid] | 1.13 min
COc1ccc(-c2coc3cc(OC4OC(CO)C(O)C(O)C4O)ccc3c2=O)cc1 (centres undefined) [Ononin] | 1.52 min
Cc1cnc(=O)[nH]c1N [5-Methylcytosine hydrochloride] | 0.25 min
C[N+](C)(C)CCOP(=O)(O)O [O-Phosphocholine] | 0.17 min
NC(CSS(=O)(=O)O)C(=O)O (centres undefined) [S-Sulfocysteine] | 0.17 min
OCC1OC(OC2C(O)C(O)C(O)C(O)C2O)C(O)C(O)C1O (centres undefined) [Galactinol Dihydrate] | 0.16 min
N[C@@H](CCO)C(=O)O [L-Homoserine] | 0.17 min
OCC1OC(OC2C(Oc3cc4c(O)cc(O)cc4[o+]c3-c3ccc(O)c(O)c3)OC(CO)C(O)C2O)C(O)C(O)C1O (centres undefined) | 1.16 min
O=CC(O)CO (racemic) [DL-Glyceraldehyde] | 0.17 min

SMILES | LC retention time
N#Cc1cccnc1 [3-cyanopyridine] | 1.18 min
c1cnc2c(c1)ccc1cccnc12 [1,10-Phenanthroline monohydrate] | 1.18 min
O=C(O)CNC(=O)c1ccccc1 [Hippuric Acid] | 1.29 min
NCCCCN=C(N)N [Agmatine sulfate salt] | 0.15 min
CN1CC(=O)NC1=N [Creatinine,anhydrous] | 0.19 min
CC1(C(=O)O)CCC2(C)CCC3(C)C(=CC(=O)C4C5(C)CCC(OC6OC(C(=O)O)C(O)C(O)C6OC6OC(C(=O)O)C(O)C(O)C6O)C(C)(C)C5CCC43C)C2C1 (centres undefined) [Glycyrrhizin] | 1.7 min
CC(=O)NC(CC(C)C)C(=O)NC(CC(C)C)C(=O)NC(C=O)CCCN=C(N)N (centres undefined) [Leupeptin hemisulfate salt] | 1.42 min
NC(=NCCCC(N)C(=O)O)NC(CC(=O)O)C(=O)O (centres undefined) [Argininosuccinic acid disodium salt] | 0.29 min
CN1C=CC=CC1=CN=O [Pyridine-2-aldoxime methochloride] | 0.25 min
O=C(O)/C=C/c1ccccc1 [trans-Cinnamic acid] | 1.64 min
N[C@@H](Cc1ccc(O)c(O)c1)C(=O)O [3,4-Dihydroxy-L-phenylalanine] | 0.4 min
NC(CCC(=O)NC(CS)C(=O)O)C(=O)O (centres undefined) [gamma-Glu-Cys] | 0.55 min
O=C(O)Cc1cc(O)ccc1O [Homogentisic acid] | 1.1 min
CCCC(O)C(=O)O (racemic) [DL-2-Hydroxyvaleric acid sodium salt hydrate] | 1.14 min
Cc1ncc(CO)c(C=O)c1O [pyridoxal hydrochrolide] | 0.38 min
COc1cccc(C=CC(=O)O)c1 [3-Methoxycinnamic acid] | 1.67 min
Nc1ncnc2c1ncn2C1CC(O)C(CO)O1 (centres undefined) [2'-Deoxyadenosine monohydrate] | 1.07 min
CC(C)C(O)(CC(=O)O)C(=O)O (centres undefined) [2-Isopropylmalic acid] | 1.21 min
O=C(O)C1(O)CC(O)C(O)C(O)C1 [D-(-)-Quinic acid] | 0.19 min
Cn1c(=O)c2c(ncn2C)n(C)c1=O [Caffeine,Anhydrous] | 1.24 min
